Data as given in patent US20090031433A1, “METHODS FOR SCREENING INSECTICIDES” (priority 2004, published 2009).

Columns and labels:
[1] = tested on: D. melanogaster MUTANT strain (dhr96_hairpin / GAL4-arm, reduced dhr96 expression); assay: Topical application bioassay on adult females, dhr96 knockdown mutant strain; format: in vivo, Drosophila melanogaster; conditions: 50 ppm topical application, at 5 hours, 3 independent experiments
Experimental: (§1) For testing on adults by topical application of compounds, a method has been adapted from Dapkus (Drosophila Information Newsletter, Volume 1, January 1991; http://jfly.iam.u-tokyo.ac.jp/html/din/DIN_Vol_01—9101.txt). 0-3 day old adult D. melanogaster females are anaesthetised using CO2, and 0.4 uL of compound dissolved in acetone is applied to the abdomens of these females using a Hamilton pipette. After compound application, the flies are cultured under normal conditions for the required time intervals, and either visually assessed (as in Example 6.2) or harvested for chemical analysis (Example 7). Ideally the experiment is repeated on 3 separate ocassions
(§2) The effects of the compounds on the whole insects (larvae and adults) are monitored by visual assessment, daily or at a frequency as required. In one type of assessment, the mortality of the insects over time is scored. For example, if the adult test is used, the insects are monitored at time points that have been determined previously to be suitable for the experiment. The number of dead flies at each time point is scored.
(§3) Bioassays are carried out as described above. In one example, the insecticide Malathion was applied to 20 females at a dose of 50 ppm per time point to be assessed, according to the topical application method described above. […]

[2] = tested on: D. melanogaster control strains (CONTROL 1, CONTROL 2); assay: Topical application bioassay on adult females, control strains; format: in vivo, Drosophila melanogaster; conditions: 50 ppm topical application, by 5 hours, 3 independent experiments
Experimental: as §1, §2, §3

Structure (SMILES): CCOC(=O)CC(SP(=S)(OC)OC)C(=O)OCC (centres unmarked) [Malathion]
- mortality [1]: no or significantly reduced mortality
- percentage mortality [2]: ≥ 95%
